Like-named read-outs stand apart in the source and are kept apart here.
What was measured:
Format in all cases: biochemical
[1] = biological target: NEK6 (Homo sapiens, UniProt Q9HC98); test: Kinase screen: NEK6 assay
Method: (§1) Generally, the same procedure was used for all assays. Since the total assay volume was 25.5 microliters, 0.5 microliters of inhibitors at 51× assay concentration were added to the plates before any other addition.
(§2) The basic procedure was to add 0.5 microliters inhibitor/control in DMSO to plate. Fifteen microliters of enzyme/substrate/buffer mix were added and incubated for 5 min. Ten microliters MgATP at the relevant concentration were added and incubated for 30 min. The assay was stopped by adding 5 microliters of 3% orthophosphoric acid. The assay was transferred to a p81 filter plate and read in a scintillation counter of 30 sec/well. Note that this assay procedure was not followed for MKK1, which instead involved a two-step assay, and PKC alpha, which required the addition of lipid vesicles.
(500-1000 cpm/pmole) and incubated for 30 min at room temperature. Assays were stopped by addition of 5 μl of 0.5 M (3%) orthophosphoric acid and then harvested onto P81 Unifilter plates with a wash buffer of 50 mM orthophosphoric acid.

[2] = biological target: ERK2 (Homo sapiens, UniProt P28482); test: Kinase screen: MAPK2/ERK2 assay
ERK2, sequence (P28482 whole entry, species assumed): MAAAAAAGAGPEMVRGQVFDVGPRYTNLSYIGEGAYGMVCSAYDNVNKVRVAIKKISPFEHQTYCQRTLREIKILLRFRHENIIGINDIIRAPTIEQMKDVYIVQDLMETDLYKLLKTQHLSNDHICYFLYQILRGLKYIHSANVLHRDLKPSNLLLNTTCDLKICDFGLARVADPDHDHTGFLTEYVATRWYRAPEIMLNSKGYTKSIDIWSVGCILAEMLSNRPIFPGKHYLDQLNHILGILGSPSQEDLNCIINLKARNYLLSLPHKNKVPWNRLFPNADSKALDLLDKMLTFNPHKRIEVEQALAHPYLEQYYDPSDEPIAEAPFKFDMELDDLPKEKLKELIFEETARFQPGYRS
Method: as §1, §2
MAPK2/ERK2 assay: MAPK/ERK2 (5-20 mU diluted in 50 mM Tris pH 7.5, 0.1 mM EGTA, 0.1 mM Na3VO4, 0.1% b-mercaptoethanol, 1 mg/ml BSA) was assayed against MBP in a final volume of 25.5 μl in 25 mM Tris pH 7.5, 0.1 mM EGTA, 0.33 mg/ml MBP, 10 mM magnesium acetate and 0.05 mM [33P-g-ATP] (500-1000 cpm/pmole) and incubated for 30 min at room temperature. Assays were stopped by addition of 5 μl of 0.5 M (3%) orthophosphoric acid and then harvested onto P81 Unifilter plates with a wash buffer of 50 mM orthophosphoric acid.

[3] = biological target: T1, CHK1 (Homo sapiens, UniProt O14757); test: Kinase screen: CHK1 assay
T1 sequence (O14757 1-476): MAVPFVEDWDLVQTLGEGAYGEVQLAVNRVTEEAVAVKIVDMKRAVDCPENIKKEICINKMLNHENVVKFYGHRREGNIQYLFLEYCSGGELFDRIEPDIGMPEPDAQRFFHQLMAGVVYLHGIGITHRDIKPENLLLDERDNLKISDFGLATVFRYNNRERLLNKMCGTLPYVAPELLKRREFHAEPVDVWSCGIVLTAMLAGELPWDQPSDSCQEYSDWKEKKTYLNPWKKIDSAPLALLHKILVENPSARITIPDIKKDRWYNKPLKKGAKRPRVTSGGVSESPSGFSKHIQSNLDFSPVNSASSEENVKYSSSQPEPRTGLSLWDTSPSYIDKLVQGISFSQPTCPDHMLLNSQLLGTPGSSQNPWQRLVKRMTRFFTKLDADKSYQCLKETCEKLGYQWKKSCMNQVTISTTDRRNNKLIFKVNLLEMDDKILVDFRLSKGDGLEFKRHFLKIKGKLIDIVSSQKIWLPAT
Method: as §1, §2
CHK1 assay: CHK1 (5-20 mU diluted in 20 mM MOPS pH 7.5, 1 mM EDTA, 0.1% b-mercaptoethanol, 0.01% Brij-35, 5% glycerol, 1 mg/ml BSA) was assayed against CHKtide substrate peptide ([…]) (SEQ ID NO: 12) in a final volume of 25.5 μl containing 8 mM MOPS pH 7.0, 0.2 mM EDTA, 200 μM CHKtide, 10 mM magnesium acetate and 0.02 mM [33P-g-ATP] (50-1000 cpm/pmole) and incubated for 30 min at room temperature Assays were stopped by addition of 5 μl of 0.5 M (3%) orthophosphoric acid and then harvested onto P81 Unifilter plates with a wash buffer of 50 mM orthophosphoric acid.

[4] = biological target: CDK 5 (Homo sapiens, UniProt Q00535); test: CDK5 in vitro kinase inhibition (protocol similar to Example 14); conditions: for remaining activity at 0.1 µM: 100 nM, mean of three (standard deviation), read-out: CDK5 % remaining kinase activity after incubation with 100 nM of compound; for IC50: Table 7, mean of three experiments
CDK 5, sequence (Q00535 whole entry): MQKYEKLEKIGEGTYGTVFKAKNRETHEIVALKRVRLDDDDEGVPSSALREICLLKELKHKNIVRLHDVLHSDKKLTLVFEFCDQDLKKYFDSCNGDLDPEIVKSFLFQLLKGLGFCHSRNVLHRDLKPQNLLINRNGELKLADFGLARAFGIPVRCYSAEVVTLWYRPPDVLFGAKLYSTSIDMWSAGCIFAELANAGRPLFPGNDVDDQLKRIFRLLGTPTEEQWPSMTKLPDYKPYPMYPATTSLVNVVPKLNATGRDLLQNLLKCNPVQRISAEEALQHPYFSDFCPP
CDK 5, sequence (Q15078 whole entry partner): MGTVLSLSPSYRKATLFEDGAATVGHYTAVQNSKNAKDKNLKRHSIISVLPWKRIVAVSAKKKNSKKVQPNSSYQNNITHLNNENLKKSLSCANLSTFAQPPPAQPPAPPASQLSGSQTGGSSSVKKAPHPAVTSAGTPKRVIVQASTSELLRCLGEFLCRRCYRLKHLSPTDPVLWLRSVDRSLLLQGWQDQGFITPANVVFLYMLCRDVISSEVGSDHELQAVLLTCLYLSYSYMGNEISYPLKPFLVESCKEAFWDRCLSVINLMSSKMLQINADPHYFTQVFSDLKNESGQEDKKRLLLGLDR

[5] = 10 micromolar compound, read-out: mean activity remaining (as a percentage of the original activity), NEK 6
[6] = 10 micromolar compound, read-out: mean activity remaining (as a percentage of the original activity), ERK2
[7] = 10 micromolar compound, read-out: mean activity remaining (as a percentage of the original activity), CHK 1

NEK6, sequence (Q9HC98 whole entry, species assumed): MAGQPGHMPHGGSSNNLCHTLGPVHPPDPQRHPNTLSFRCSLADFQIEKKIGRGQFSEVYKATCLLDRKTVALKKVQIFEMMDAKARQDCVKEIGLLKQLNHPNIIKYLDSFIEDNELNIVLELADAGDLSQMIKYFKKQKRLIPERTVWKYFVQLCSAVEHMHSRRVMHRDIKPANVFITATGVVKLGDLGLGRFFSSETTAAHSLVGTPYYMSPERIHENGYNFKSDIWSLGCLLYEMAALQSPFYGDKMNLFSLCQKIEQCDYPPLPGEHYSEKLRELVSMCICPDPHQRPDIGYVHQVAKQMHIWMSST

Row | SMILES | remaining activity at 10 µM ([1]; NEK6, 10 μM, read-out: Mean Remaining Enzyme Activity (%)) | remaining activity at 10 µM ([2]; ERK2, 10 μM, read-out: Mean Remaining Enzyme Activity (%)) | remaining activity at 10 µM ([3]; CHK1, 10 μM, read-out: Mean Remaining Enzyme Activity (%)) | remaining activity at 10 µM [1, 5] | remaining activity at 10 µM [2, 6] | remaining activity at 0.1 µM [4] | IC50 [4] | remaining activity at 10 µM [3, 7] | mean activity remaining (as a percentage of the original activity), NEK 6 ([1]; 10 micromolar compound) | mean activity remaining (as a percentage of the original activity), ERK2 ([2]; 10 micromolar compound) | mean activity remaining (as a percentage of the original activity), CHK 1 ([3]; 10 micromolar compound)
1 | CC(C)c1cnn2c(NCc3ccccc3)cc(NCCCCCCCN)nc12 [BS-181] | 85% | 86% | 80% |  |  |  |  |  |  |  | 
2 | C=C[C@H](CO)Nc1cc(NCc2ccccc2)n2ncc(C(C)C)c2n1 [ICEC0065] |  |  |  | 105% | 59% | 83% | > 1 µM | 87% |  |  | 
3 | CC[C@H](CO)Nc1cc(NCc2ccccc2)n2ncc(C(C)C)c2n1 [ICEC0067] |  |  |  | 101% | 59% | 84% |  | 100% |  |  | 
4 | CC(C)c1cnn2c(NCc3ccccc3)cc(N[C@@H](CO)[C@H](O)CO)nc12 [ICEC0318, (3S)-3-(7-(Benzylamino)-3-isopropylpyrazolo[1,5-a]pyrimidin-5-ylamino)butane-1,2,4-triol] |  |  |  | 87% | 26% | 14% | 0.03 µM | 98% |  |  | 
5 | CC(C)c1cnn2c(NCc3ccccc3F)cc(NCCCCCN)nc12 [ICEC-0232] |  |  |  |  |  |  |  |  | 74% | 70% | 87%

From patent publication US8067424B2, “Selective inhibitors for cyclin-dependent kinases” (Emory University, priority 2007, dated 2011)
